The source made the active and inactive calls. No cut-off for these calls is given here.
Key:
[1] = tested on: TA3; assay: Growth inhibition of mouse TA3 cells at 10^-4 M; format: functional
[2] = tested on: TA3; assay: Growth inhibition of mouse TA3 cells; format: functional

Compound	growth inhibition (GI) [1]	ID50 [2]	further results
Cc1ncc(CO)c(N)c1O	inactive		
Br.Cc1ncc(CO)c(Br)c1O		1 ×10⁻⁵ M	
Cc1ncc(CO)c(C(F)(F)F)c1O		2 ×10⁻⁵ M	
Cc1ncc(CO)c(/C=N/O)c1O		8 ×10⁻⁵ M	
Cc1ncc(CBr)c(N)c1O			inhibition of growth at 100 µM ([1]; read-out: GI): 30%
Cc1ncc(CO)c(O)c1O	inactive		

Reference: ChEMBL document CHEMBL3272110, “Synthesis and biological properties of 4-amino- and 4-bromo-4-norpyridoxol. New approaches for the modification of the 4 position of vitamin B6” (1976)
